Test results published in patent US20260166045A1, “COMBINATION THERAPY COMPRISING GSPT1-DIRECTED MOLECULAR GLUE DEGRADERS AND PI3K/AKT/mTOR PATHWAY INHIBITORS” (Monte Rosa Therapeutics, Inc., priority 2022, published 2026).

Experiments:
Experiment in all cases: CellTiter-Glo 2.0 cell viability, 7x7 combination dose response matrix, synergy scoring
Format in all cases: cell-based
MDA-MB-231 cell line = tested on: MDA-MB-231 cell line
Source text: (§1) A study was undertaken to determine whether the combination of a GSPT1-directed MGD and an inhibitor of the PI3K/AKT/mTOR pathway could be effective in killing cancer cells and whether certain combination could elicit a greater than additive effect on cell killing.
(§2) FIG. 1 is a flow diagram of the method used to assess cancer cell killing by a combination of a GSPT1-directed MGD and an inhibitor of the PI3K/AKT/mTOR pathway. Certain of the materials and equipment used in the studies are presented in Table 3 and the cell lines used are presented in Table 4.
(§3) All assays were run in triplicate. Each 384-well plate accommodated six 7×7 dose response matrices (FIG. 2). All compound handling was performed using an Echo 650 Series Acoustic Liquid Handler, which enables fully automated, precise, contact-free acoustic transfer in volumes as low as 2.5 nL.
(§4) The following protocol was used for cell plating: • 1. Warm media to room temperature or 37° C. • 2. Prepare complete phenol-free media by adding 10% FBS+1% Pen-Strep to RPMI 1640 Medium or DMEM. • 3. Aspirate media from T175 tissue culture flask and rinse with 10 ml PBS. • 4. Aspirate PBS and add 2 mL 0.25% trypsin. Incubate the flask at 37° C. for 5 min or until cells are detached. • 5. Add 10 mL complete media to the flask to neutralize the trypsin, then collect cells in a 50 mL conical tube. • 6. Centrifuge cells at 300 g for 5 min. Aspirate media and suspend cell pellet in fresh media. Use cell strainer to strain cells into a new 50 mL conical tube. • 7. […] Mix 100 uL cell suspension with 100 uL trypan blue (1:1) and pipette 20 μL of the mixture into each of 2 counting chambers on a slide. Insert slide. • b. Adjust focus and record the live cell count. At least 2 independent measurements should be taken. […] Cell viability should be greater than 90%. […] Dilute cell suspension to the desired concentration (20000 cells/mL) using complete phenol-free media. Prepare 10 mL cell suspension per plate+an extra 10 mL for priming the liquid handler. • 9. Dispense cells into 384-well plates using the liquid handler at 25 uL/well (500 cells/well). 3 plates should be prepared per compound plate to be treated. • 10. Cells should be dispensed into columns 1-23 only. Media only (no cells) should be dispensed into column 24. • 11. Allow plates to rest at RT for 30 minutes before transferring to the incubator. Incubate cells overnight at 37° C., 95% humidity, and 5% CO2.
(§5) Compound plates were prepared as follows using an Echo 650 Series Acoustic Liquid Handler. • 1. A compound plate containing 7-point dose responses of each compound to be treated is first prepared from stock compounds. • 2. The cell plates are treated with compounds according to the following maps, where the first compound is added across all six 7 by 7 dose response matrices, and its concentration varies by row (FIG. 2; top matrix), whereas the second compound varies for each dose response matrix, and its concentration varies by column (FIG. 2; bottom matrix). Each cell plate receives one Compound A and six different Compound Bs. • 3. To prepare a compound plate, 384-well PP plate with stock compounds (highest concentration) is prepared. Compounds are diluted 1:1000 in the cell plates, e.g. 10 mM on compound plate will be 10 uM on cell plate. A 384-well LDV plate with pre-determined volumes of DMSO is prepared. Echo is used to dilute stock compounds from PP plate into LDV plate to prepare 7-point dose responses.
(§6) Compounds were added to the cells and cell viability was measured after 72 hour incubation using CellTiter-Glo 2.0 Cell Viability Assay (Promega): • 1. For a compound addition, Echo is used to transfer 25 nL from the compound plate wells to the cell plates according to the plate maps shown in FIG. 2. Cell plates are treated in triplicate. Each well of the cell plate has 25 uL media (1:1000 dilution). Incubate cells post-treatment at 37° C., 95% humidity, and 5% CO2 for 72 hrs (step 106). • 2. […]

MCF7 cell line = details: MCF7, first compound 4.1-1000 nM
Source text: as §1, §2, §3, §4, §5, §6

NCI-H2023 cell line = details: NCI-H2023, first compound 1.05-500 nM
Source text: as §1, §2, §3, §4, §5, §6

CAL51 cell line = details: CAL51, first compound 4.1-1000 nM
Source text: as §1, §2, §3, §4, §5, §6

MDA-MB-157 cell line = details: first compound 4.1-1000 nM
Source text: as §1, §2, §3, §4, §5, §6

[1] = MDA-MB-231, combined with Alpelisib 41-10000 nM, first compound 4.1-1000 nM
[2] = MDA-MB-231, combined with Capivasertib 41-10000 nM, first compound 4.1-1000 nM
[3] = MDA-MB-231, combined with Everolimus 41-10000 nM, first compound 4.1-1000 nM
[4] = MDA-MB-231, combined with GNE-477 41-10000 nM, first compound 4.1-1000 nM
[5] = MDA-MB-231, combined with KU-0063794 41-10000 nM, first compound 4.1-1000 nM
[6] = MDA-MB-231, combined with M2698 41-10000 nM, first compound 4.1-1000 nM
[7] = combined with Alpelisib 41-10000 nM
[8] = combined with Capivasertib 41-10000 nM
[9] = combined with Everolimus 41-10000 nM
[10] = combined with GNE-477 41-10000 nM
[11] = combined with KU-0063794 41-10000 nM
[12] = combined with M2698 41-10000 nM
[13] = combined with GNE-477 21-10000 nM
[14] = combined with KU-0063794 21-10000 nM
[15] = combined with M2698 21-10000 nM

O=C1CCC(N2Cc3ccc(COC(=O)Nc4cc(OC(F)(F)F)ccc4F)cc3C2=O)C(=O)N1 (stereo not shown) [Compound 1-1, [2-(2,6-dioxopiperidin-3-yl)-3-oxo-2,3-dihydro-1H-isoindol-5-yl]methyl N-[2-fluoro-5-(trifluoromethoxy)phenyl]carbamate]
Mean Bliss synergy score (MDA-MB-231 cell line; [1]): −0.82
Mean Loewe synergy score (MDA-MB-231 cell line; [1]): 5.41
Mean Bliss synergy score (MDA-MB-231 cell line; [2]): 6.44
Mean Loewe synergy score (MDA-MB-231 cell line; [2]): 8.02
Mean Bliss synergy score (MDA-MB-231 cell line; [3]): 12.28
Mean Loewe synergy score (MDA-MB-231 cell line; [3]): 15.50
Mean Bliss synergy score (MDA-MB-231 cell line; [4]): 4.62
Mean Loewe synergy score (MDA-MB-231 cell line; [4]): 12.93
Mean Bliss synergy score (MDA-MB-231 cell line; [5]): 4.80
Mean Loewe synergy score (MDA-MB-231 cell line; [5]): 9.37
Mean Bliss synergy score (MDA-MB-231 cell line; [6]): 3.71
Mean Loewe synergy score (MDA-MB-231 cell line; [6]): 11.94
Mean Bliss synergy score (MDA-MB-231 cell line; combined with M2698, MDA-MB-231 cell line, mean across dose response matrix, 72 hrs): 4.89
Mean Bliss synergy score (MCF7 cell line; [7]): 1.44
Mean Loewe synergy score (MCF7 cell line; [7]): 6.88
Mean Bliss synergy score (MCF7 cell line; [8]): 1.60
Mean Loewe synergy score (MCF7 cell line; [8]): 11.02
Mean Bliss synergy score (MCF7 cell line; [9]): 6.39
Mean Loewe synergy score (MCF7 cell line; [9]): 17.49
Mean Bliss synergy score (MCF7 cell line; [10]): 8.82
Mean Loewe synergy score (MCF7 cell line; [10]): 12.53
Mean Bliss synergy score (MCF7 cell line; [11]): 9.78
Mean Loewe synergy score (MCF7 cell line; [11]): 14.51
Mean Bliss synergy score (MCF7 cell line; [12]): 8.47
Mean Loewe synergy score (MCF7 cell line; [12]): 15.52
Mean Bliss synergy score (NCI-H2023 cell line; [13]): 16.57
Mean Loewe synergy score (NCI-H2023 cell line; [13]): 4.95
Mean Bliss synergy score (NCI-H2023 cell line; [14]): 16.57
Mean Loewe synergy score (NCI-H2023 cell line; [14]): 7.27
Mean Bliss synergy score (NCI-H2023 cell line; [15]): 10.90
Mean Loewe synergy score (NCI-H2023 cell line; [15]): 9.33
Mean Bliss synergy score (CAL51 cell line; [7]): 14.61
Mean Loewe synergy score (CAL51 cell line; [7]): 11.03
Mean Bliss synergy score (CAL51 cell line; [8]): 32.32
Mean Loewe synergy score (CAL51 cell line; [8]): 28.73
Mean Bliss synergy score (CAL51 cell line; [9]): 29.55
Mean Loewe synergy score (CAL51 cell line; [9]): 34.51
Mean Bliss synergy score (CAL51 cell line; [10]): 12.11
Mean Loewe synergy score (CAL51 cell line; [10]): 12.09
Mean Bliss synergy score (CAL51 cell line; [11]): 20.80
Mean Loewe synergy score (CAL51 cell line; [11]): 19.07
Mean Bliss synergy score (CAL51 cell line; [12]): 18.29
Mean Loewe synergy score (CAL51 cell line; [12]): 22.14
Mean Bliss synergy score (MDA-MB-157 cell line; [7]): −2.43
Mean Loewe synergy score (MDA-MB-157 cell line; [7]): 2.54
Mean Bliss synergy score (MDA-MB-157 cell line; [8]): 3.83
Mean Loewe synergy score (MDA-MB-157 cell line; [8]): 7.36
Mean Bliss synergy score (MDA-MB-157 cell line; [9]): 1.61
Mean Loewe synergy score (MDA-MB-157 cell line; [9]): 8.84
Mean Bliss synergy score (MDA-MB-157 cell line; [10]): 1.72
Mean Loewe synergy score (MDA-MB-157 cell line; [10]): 6.42
Mean Bliss synergy score (MDA-MB-157 cell line; [11]): 2.25
Mean Loewe synergy score (MDA-MB-157 cell line; [11]): 6.64
Mean Bliss synergy score (MDA-MB-157 cell line; [12]): 4.89
Mean Loewe synergy score (MDA-MB-157 cell line; [12]): 7.65
